In article PMC8452690, “Structural basis for small molecule targeting of Doublecortin Like Kinase 1 with DCLK1-IN-1” (Communications Biology, 2021):
Numbering of substitutions follows the chain as printed.

Experiments:
[1] = target: T1, DCLK1-FL1Δ WT tubulin polymerisation activity (Homo sapiens, UniProt O15075); assay: Tubulin polymerisation and pelleting assay with DCLK1-FL1Δ WT; type: biochemical; conditions: 20 and 40 μM (Supplementary Fig. 10c)
T1 construct: DCLK1-FL1Δ (residues 50-686); 8XHis tag with TEV protease cleavage site (N); made in house; host or cells: Escherichia coli C41(DE3)
T1 sequence (O15075 50-686 isoform O15075-2): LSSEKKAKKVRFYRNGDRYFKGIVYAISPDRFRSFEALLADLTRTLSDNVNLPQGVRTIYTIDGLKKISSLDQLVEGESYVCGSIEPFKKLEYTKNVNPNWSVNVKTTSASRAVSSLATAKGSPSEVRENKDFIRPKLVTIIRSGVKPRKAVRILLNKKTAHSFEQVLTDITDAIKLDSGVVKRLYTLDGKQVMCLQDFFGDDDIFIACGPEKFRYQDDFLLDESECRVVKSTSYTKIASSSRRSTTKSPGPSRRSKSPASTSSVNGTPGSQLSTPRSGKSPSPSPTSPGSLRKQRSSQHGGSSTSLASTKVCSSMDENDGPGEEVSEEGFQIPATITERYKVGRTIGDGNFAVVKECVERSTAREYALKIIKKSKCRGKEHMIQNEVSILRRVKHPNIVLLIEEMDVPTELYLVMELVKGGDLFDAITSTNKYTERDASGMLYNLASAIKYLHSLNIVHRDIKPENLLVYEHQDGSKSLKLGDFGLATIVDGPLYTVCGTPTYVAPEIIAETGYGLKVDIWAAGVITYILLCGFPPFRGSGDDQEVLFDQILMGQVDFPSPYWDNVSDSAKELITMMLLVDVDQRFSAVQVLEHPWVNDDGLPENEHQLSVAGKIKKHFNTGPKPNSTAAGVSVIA
Description: Tubulin polymerisation assays were performed in buffer containing 80 mM PIPES at pH 6.9, 2.0 mM MgCl2, 0.5 mM EGTA, 2.5 mM β,γ-Methyleneguanosine 5’-triphosphate, and 10 μM tubulin and 5 μM DCLK1 for 1 h at 37 °C. For tubulin polymerisation in the presence of inhibitors, various concentrations of the inhibitors were first incubated with DCLK1 and allowed to stand on ice for 5 min before adding this mix to the tubulin polymerisation reaction. Following the tubulin polymerisation, the reaction mix was pelleted at 20,000 g for 20 min and the supernatant and the pellet fractions were run on a 12% SDS gel. The data shown are representative of two independent experiments.

[2] = target: T2, DCLK1-FL1Δ D511N tubulin polymerisation (MAP function) (Homo sapiens, UniProt O15075, D511N); assay: Fluorescence-based Tubulin Polymerisation Assay with DCLK1-FL1Δ D511N; type: biochemical; conditions: 20 μM or 40 μM, fluorescence (Fig. 5e)
T2 construct: DCLK1-FL1Δ (residues 50-686); 8XHis tag with TEV protease cleavage site (N); made in house; host or cells: Escherichia coli C41(DE3)
T2 sequence (O15075 50-686 isoform O15075-2 D511N): T1 sequence (O15075 50-686 isoform O15075-2) with D462N
Description: Tubulin polymerisation assay were performed using the Microtubule Polymerisation/Depolymerisation Fluorescence Kit (Cytoskeleton #BK011P) in accordance with the manufacturer’s instructions. DCLK1 (4 μΜ) was added to 50 μL tubulin reaction mix containing Buffer 1 (80 mM PIPES at pH 6.9, 2.0 mM MgCl2, 0.5 mM EGTA, 10 μM fluorescent reporter), guanosine triphosphate stock solution at 100 mM, and tubulin (10 mg/ml) stock solution, as described by the manufacturer. Paclitaxel, a control of tubulin polymerisation, was tested at 3 μM, and Νocodazole, a tubulin polymerisation inhibitor, was tested at 80 μΜ. DCLK1-IN-1 was tested at 20 and 40 μΜ with buffer alone as controls. Polymerisation leads to fluorescence enhancement due to incorporation of a fluorescence reporter into polymerising microtubules and was measured by excitation at 355 nm and emission at 460 nm. Readings were taken every 20 s on EnVision Multimode Plate Reader. Each condition was tested in duplicate with two independent batches of protein.

## COc1cc(N2CCN(C)CC2)ccc1Nc1ncc2c(n1)N(C)c1ccccc1C(=O)N2CC(F)(F)F [DCLK1-IN-1]
[1]
  restoration of DCLK1-FL1Δ WT tubulin polymerisation activity: did not restore
[2]
  effect on DCLK1-FL1Δ D511N ability to polymerise tubulin: did not impact
